Measurements taken from PubChem BioAssay (NCI).
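Tested at 5 concentrations; 48 h exposure; 96-well plates; endpoints linearly interpolated, else capped at highest concentration. TGI marks complete inhibition of growth.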

What was measured:
Assay in all cases: NCI tumour cell line growth inhibition, 48 h
[1] = test system: HCT-116 colon
[2] = test system: MDA-MB-435
[3] = test system: NCI-H460 lung
[4] = test system: OVCAR-5 ovarian
[5] = test system: CCRF-CEM leukemia
[6] = test system: COLO 205 colon
[7] = test system: SF-539 CNS
[8] = test system: MOLT-4 leukemia
[9] = test system: OVCAR-8 ovarian
[10] = test system: MALME-3M melanoma
[11] = test system: SK-OV-3 ovarian
[12] = test system: MDA-N
[13] = test system: SK-MEL-5 melanoma

Compound | TGI [1] [µM] | TGI [2] [µM] | TGI [3] [µM] | TGI [4] [µM] | TGI [5] [µM] | TGI [6] [µM] | TGI [7] [µM] | TGI [8] [µM] | TGI [9] [µM] | TGI [10] [µM] | TGI [11] [µM] | TGI [12] [µM] | TGI [13] [µM]
COC(=O)CNC(=O)CSc1nnc(COc2ccc(Cl)cc2)n1-c1ccccc1 | > 100 | 48.4 | > 100 | > 100 | > 100 | > 100 | > 100 | > 100 | 92.9 | > 100 | > 100 | 42.2 | –
O=C(NC(CCCCN1C(=O)c2ccccc2C1=O)P(=O)(Oc1ccccc1)Oc1ccccc1)OCc1ccccc1 (stereo not drawn) | – | > 100 | > 100 | > 100 | – | > 100 | > 100 | – | > 100 | > 100 | > 100 | > 100 | > 100
Cc1ccc(S(=O)(=O)NNC(=O)Nc2ccc([N+](=O)[O-])cc2)cc1 | > 100 | > 100 | 87.6 | > 100 | > 100 | > 100 | > 100 | > 100 | 42.3 | > 100 | – | > 100 | > 100
COc1cc2c(cc1O)C(=O)O[C@@H]1CC=C3CCN(C)[C@H]3[C@H]21 | > 25 | > 25 | – | > 25 | > 25 | – | – | > 25 | > 25 | > 25 | > 25 | > 25 | > 25
COC(=O)c1cc2c(cc1C(=O)OC)[C@@]1(C)CCCC(C)(C)C1CC2 (stereo partly drawn) | 45.8 | > 100 | 43.8 | 38.1 | 42.1 | – | 95.7 | > 100 | 74 | 15.3 | – | 78.8 | 35.4
CC(=O)OC(C)c1cc2c(s1)C(=O)c1ccsc1C2=O (stereo not drawn) | 0.769 | 0.0301 | – | 0.994 | 0.653 | 2.61 | 0.182 | 0.684 | 0.68 | 0.246 | 3.7 | 0.0544 | 0.0743
CCN1C/C(=C\c2ccc(Cl)cc2)c2[nH]c(=O)c(C#N)c(-c3ccc(Cl)cc3)c2C1 | > 100 | > 100 | > 100 | > 100 | > 100 | > 100 | > 100 | > 100 | – | > 100 | > 100 | > 100 | > 100
N#CC(C#N)=Cn1c(=S)[nH]c2ccc([N+](=O)[O-])cc21 | > 100 | > 100 | > 100 | > 100 | > 100 | > 100 | > 100 | > 100 | > 100 | > 100 | > 100 | > 100 | > 100
CC(C)(C)OC(=O)C1/C(=C/CBr)CN1C(=O)OC(C)(C)C (stereo not drawn) | 26.7 | 29.7 | 34.9 | 35.2 | 6.22 | 6.1 | 35.9 | 26.1 | 44.2 | 35.4 | 38.2 | 29.7 | 27.4
C=CCN1C(=O)CS/C1=N\NC(=O)CSc1nc2ccccc2c(=O)n1CC | > 100 | > 100 | 44.4 | > 100 | > 100 | > 100 | > 100 | > 100 | > 100 | > 100 | > 100 | > 100 | > 100
